Positions count from the first letter of the chain named.
Columns and labels:
[1] = molecular target: T1, hVAChT W315A (Homo sapiens, UniProt Q16572, W315A); assay: ACh equilibrium binding by competition against [3H]vesamicol
T1 sequence (Q16572 1-532 W315A): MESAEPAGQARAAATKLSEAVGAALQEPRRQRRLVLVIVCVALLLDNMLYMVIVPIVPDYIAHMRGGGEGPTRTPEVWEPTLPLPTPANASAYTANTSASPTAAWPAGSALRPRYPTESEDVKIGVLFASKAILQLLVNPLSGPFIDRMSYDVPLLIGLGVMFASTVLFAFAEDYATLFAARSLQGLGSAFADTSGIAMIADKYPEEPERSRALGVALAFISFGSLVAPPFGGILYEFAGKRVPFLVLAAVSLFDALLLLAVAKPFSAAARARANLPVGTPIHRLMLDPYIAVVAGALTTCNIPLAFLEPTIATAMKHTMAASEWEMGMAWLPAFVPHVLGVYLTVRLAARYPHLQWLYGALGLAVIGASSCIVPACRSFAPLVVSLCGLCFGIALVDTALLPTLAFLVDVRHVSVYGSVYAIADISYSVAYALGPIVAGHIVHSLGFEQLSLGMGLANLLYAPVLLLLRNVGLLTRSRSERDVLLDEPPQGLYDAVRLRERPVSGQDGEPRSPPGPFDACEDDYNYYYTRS

[2] = molecular target: T2, hVAChT W325F (Homo sapiens, UniProt Q16572, W325F); assay: [3H]ACh transport; type: biochemical
T2 sequence (Q16572 1-532 W325F): T1 sequence (Q16572 1-532 W315A) with A315W, W325F

[3] = molecular target: T3, hVAChT W331L (Homo sapiens, UniProt Q16572, W331L); assay: [3H]ACh transport; type: biochemical
T3 sequence (Q16572 1-532 W331L): T1 sequence (Q16572 1-532 W315A) with A315W, W331L

[4] = molecular target: T4, hVAChT Y60W (Homo sapiens, UniProt Q16572, Y60W); assay: [3H]vesamicol saturation binding; details: pH 7.4
T4 sequence (Q16572 1-532 Y60W): T1 sequence (Q16572 1-532 W315A) with Y60W, A315W

[5] = molecular target: T5, hVAChT M316A (Homo sapiens, UniProt Q16572, M316A); assay: [3H]vesamicol saturation binding; details: pH 7.4
T5 sequence (Q16572 1-532 M316A): T1 sequence (Q16572 1-532 W315A) with A315W, M316A

[6] = molecular target: T3, hVAChT W331L; assay: [3H]vesamicol saturation binding; details: pH 7.4
[7] = read-out: KM, Michaelis-Menten constant for ACh transport, pH 7.4

| SMILES | Kd [1] | FHA, fraction of the ACh sites that have high affinity ([1]; W315A hVAChT, pH 7.4) | Vmax/Bmax, ACh transport normalized to Bmax ([2]; pH 7.4) | Km [2, 7] | Vmax/Bmax, ACh transport normalized to Bmax ([3]; pH 7.4) | Km [3, 7] | Bmax, maximal specific [3H]vesamicol binding (VAChT expression level) [4] | Bmax, maximal specific [3H]vesamicol binding (VAChT expression level) [5] | Bmax, maximal specific [3H]vesamicol binding (VAChT expression level) [6] |
| --- | --- | --- | --- | --- | --- | --- | --- | --- | --- |
| CC(=O)OCC[N+](C)(C)C [ACh, acetylcholine] | 11 ± 4 mM | 0.84 ± 0.16 | 5.0 ± 0.5 min⁻¹ | 1000 ± 300 µM | 6.2 ± 1.2 min⁻¹ | 4600 ± 1500 µM | – | – | – |
| O[C@@H]1CCCC[C@H]1N1CCC(c2ccccc2)CC1 (racemic) [vesamicol, ( )-trans-2-(4-phenylpiperidino)cyclohexanol] | – | – | – | – | – | – | 34 ± 3 pmol/mg | 38 ± 2 pmol/mg | 14 ± 1 pmol/mg |

Source: publication PMC2962730 (Journal of neurochemistry, 2010)
